Assay results as given in paper doi:10.1101/2021.04.08.439011v1 (biorxiv, 2021).

Columns and labels:
[1] = target: ABL1(E255K) (Homo sapiens, UniProt P00519, E255K); conditions: phosphorylated; 0.1 µM; binder
[2] = target: ALK(L1196M) (Homo sapiens, UniProt Q9UM73, L1196M); conditions: 0.1 µM; binder
[3] = target: ANKK1 (Homo sapiens, UniProt Q8NFD2); conditions: 0.1 µM; binder
[4] = target: AURKA (Homo sapiens, UniProt O14965); conditions: 0.1 µM; binder
[5] = target: AURKB (Homo sapiens, UniProt Q96GD4); conditions: 0.1 µM; binder
[6] = target: AXL (Homo sapiens, UniProt P30530); conditions: 0.1 µM; binder
[7] = target: BRK (Homo sapiens, UniProt Q13882); conditions: 0.1 µM; binder
[8] = target: CAMK4 (Homo sapiens, UniProt Q16566); conditions: 0.1 µM; binder
[9] = target: CDKL1 (Homo sapiens, UniProt Q00532); conditions: 0.1 µM; binder
[10] = target: CDKL5 (Homo sapiens, UniProt O76039); conditions: 0.1 µM; binder
[11] = target: CHEK2 (Homo sapiens, UniProt O96017); conditions: 0.1 µM; binder
[12] = target: CSNK1G2 (Homo sapiens, UniProt P78368); conditions: 0.1 µM; binder
[13] = target: DAPK1 (Homo sapiens, UniProt P53355); conditions: 0.1 µM; binder
[14] = target: EGFR(L858R) (Homo sapiens, UniProt P00533, L858R); conditions: 0.1 µM; binder
[15] = target: EPHA3 (Homo sapiens, UniProt P29320); conditions: 0.1 µM; binder
[16] = target: FGFR1 (Homo sapiens, UniProt P11362); conditions: 0.1 µM; binder
[17] = target: IKK-epsilon (Homo sapiens, UniProt Q14164); conditions: 0.1 µM; binder
[18] = target: KIT(D816V) (Homo sapiens, UniProt P10721, D816V); conditions: 0.1 µM; binder
[19] = target: LYN (Homo sapiens, UniProt P07948); conditions: 0.1 µM; binder
[20] = target: MEK1 (Homo sapiens, UniProt Q02750); conditions: 0.1 µM; binder
[21] = target: MRCKA (Homo sapiens, UniProt Q5VT25); conditions: 0.1 µM; binder
[22] = target: NDR2 (Homo sapiens, UniProt Q9Y2H1); conditions: 0.1 µM; binder
[23] = target: PIK3CA(E545A) (Homo sapiens, UniProt P42336, E545A); conditions: 0.1 µM; binder
[24] = target: PIK3CA(Q546K) (Homo sapiens, UniProt P42336, Q546K); conditions: 0.1 µM; binder
[25] = target: PRKD1 (Homo sapiens, UniProt Q15139); conditions: 0.1 µM; binder
[26] = target: RET(V804L) (Homo sapiens, UniProt P07949, V804L); conditions: 0.1 µM; binder
[27] = target: SLK (Homo sapiens, UniProt Q9H2G2); conditions: 0.1 µM; binder
[28] = target: TAOK1 (Homo sapiens, UniProt Q7L7X3); conditions: 0.1 µM; binder
[29] = target: ZAK (Homo sapiens, UniProt Q9NYL2); conditions: 0.1 µM; binder
[30] = target: p38-beta (Homo sapiens, UniProt Q15759); conditions: 0.1 µM; binder
[31] = target: p38-delta (Homo sapiens, UniProt O15264); conditions: 0.1 µM; binder

Chain of PIK3CA(Q546K) (P42336 whole entry Q546K): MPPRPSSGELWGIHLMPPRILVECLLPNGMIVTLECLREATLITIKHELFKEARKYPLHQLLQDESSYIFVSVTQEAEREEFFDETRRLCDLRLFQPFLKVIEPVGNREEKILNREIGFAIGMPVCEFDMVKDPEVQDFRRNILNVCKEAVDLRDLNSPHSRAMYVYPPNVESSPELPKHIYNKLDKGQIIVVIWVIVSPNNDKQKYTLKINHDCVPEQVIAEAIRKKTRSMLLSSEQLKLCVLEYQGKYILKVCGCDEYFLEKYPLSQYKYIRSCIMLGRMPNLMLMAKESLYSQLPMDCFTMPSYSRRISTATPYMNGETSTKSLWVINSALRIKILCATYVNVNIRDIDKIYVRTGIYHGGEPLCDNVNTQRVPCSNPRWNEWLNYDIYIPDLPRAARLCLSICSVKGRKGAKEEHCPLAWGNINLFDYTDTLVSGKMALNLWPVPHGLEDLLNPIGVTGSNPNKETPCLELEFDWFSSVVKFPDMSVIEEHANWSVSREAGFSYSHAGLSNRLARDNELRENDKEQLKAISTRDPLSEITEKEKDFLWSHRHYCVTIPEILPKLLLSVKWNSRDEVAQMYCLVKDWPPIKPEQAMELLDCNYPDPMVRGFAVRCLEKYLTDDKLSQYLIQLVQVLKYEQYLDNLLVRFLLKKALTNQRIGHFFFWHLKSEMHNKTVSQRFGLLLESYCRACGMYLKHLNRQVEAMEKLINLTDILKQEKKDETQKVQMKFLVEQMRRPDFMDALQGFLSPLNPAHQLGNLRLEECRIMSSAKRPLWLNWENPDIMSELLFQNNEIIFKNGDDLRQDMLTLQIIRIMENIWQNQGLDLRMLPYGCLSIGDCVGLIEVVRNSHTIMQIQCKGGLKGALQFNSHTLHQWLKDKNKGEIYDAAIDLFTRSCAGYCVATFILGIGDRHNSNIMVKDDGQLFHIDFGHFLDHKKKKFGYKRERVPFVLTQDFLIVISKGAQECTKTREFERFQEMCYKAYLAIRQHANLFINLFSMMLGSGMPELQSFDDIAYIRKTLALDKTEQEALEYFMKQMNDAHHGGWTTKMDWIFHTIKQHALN
Chain of TAOK1 (Q7L7X3 whole entry): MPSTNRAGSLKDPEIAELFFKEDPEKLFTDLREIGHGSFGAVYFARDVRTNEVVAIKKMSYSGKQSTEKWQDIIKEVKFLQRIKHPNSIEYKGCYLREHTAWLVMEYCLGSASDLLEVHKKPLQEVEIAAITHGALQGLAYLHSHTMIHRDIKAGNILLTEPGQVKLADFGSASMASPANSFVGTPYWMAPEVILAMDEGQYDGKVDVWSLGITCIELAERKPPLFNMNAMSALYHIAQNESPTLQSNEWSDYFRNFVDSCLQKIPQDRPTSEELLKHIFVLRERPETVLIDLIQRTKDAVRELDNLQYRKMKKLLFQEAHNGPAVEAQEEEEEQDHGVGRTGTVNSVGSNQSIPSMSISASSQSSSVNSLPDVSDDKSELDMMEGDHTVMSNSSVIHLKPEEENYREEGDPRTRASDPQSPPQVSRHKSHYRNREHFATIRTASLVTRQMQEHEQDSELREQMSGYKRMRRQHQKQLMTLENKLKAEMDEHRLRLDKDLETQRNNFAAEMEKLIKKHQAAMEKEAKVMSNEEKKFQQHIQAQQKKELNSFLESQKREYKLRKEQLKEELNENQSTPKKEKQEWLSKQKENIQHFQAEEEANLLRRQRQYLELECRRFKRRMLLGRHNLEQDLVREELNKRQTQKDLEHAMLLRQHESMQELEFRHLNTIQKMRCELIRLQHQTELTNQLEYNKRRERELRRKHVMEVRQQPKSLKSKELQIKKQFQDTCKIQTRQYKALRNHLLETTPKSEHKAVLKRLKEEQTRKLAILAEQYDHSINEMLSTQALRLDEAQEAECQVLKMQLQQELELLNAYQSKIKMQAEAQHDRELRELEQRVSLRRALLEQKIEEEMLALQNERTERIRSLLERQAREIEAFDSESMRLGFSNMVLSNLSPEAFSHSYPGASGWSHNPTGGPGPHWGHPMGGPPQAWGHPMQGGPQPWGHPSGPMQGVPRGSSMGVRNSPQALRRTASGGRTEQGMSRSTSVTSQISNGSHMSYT
Chain of CDKL1 (Q00532 whole entry): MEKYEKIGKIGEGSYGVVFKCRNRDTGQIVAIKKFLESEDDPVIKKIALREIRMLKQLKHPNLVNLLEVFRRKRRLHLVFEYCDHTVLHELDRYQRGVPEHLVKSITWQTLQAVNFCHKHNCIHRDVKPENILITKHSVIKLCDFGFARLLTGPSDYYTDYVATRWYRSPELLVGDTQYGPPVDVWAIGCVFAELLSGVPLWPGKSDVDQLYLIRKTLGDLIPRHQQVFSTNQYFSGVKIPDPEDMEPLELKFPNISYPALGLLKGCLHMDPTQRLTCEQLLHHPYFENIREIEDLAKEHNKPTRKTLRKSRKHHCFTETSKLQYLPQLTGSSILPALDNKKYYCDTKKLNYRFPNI
Chain of FGFR1 (P11362 whole entry): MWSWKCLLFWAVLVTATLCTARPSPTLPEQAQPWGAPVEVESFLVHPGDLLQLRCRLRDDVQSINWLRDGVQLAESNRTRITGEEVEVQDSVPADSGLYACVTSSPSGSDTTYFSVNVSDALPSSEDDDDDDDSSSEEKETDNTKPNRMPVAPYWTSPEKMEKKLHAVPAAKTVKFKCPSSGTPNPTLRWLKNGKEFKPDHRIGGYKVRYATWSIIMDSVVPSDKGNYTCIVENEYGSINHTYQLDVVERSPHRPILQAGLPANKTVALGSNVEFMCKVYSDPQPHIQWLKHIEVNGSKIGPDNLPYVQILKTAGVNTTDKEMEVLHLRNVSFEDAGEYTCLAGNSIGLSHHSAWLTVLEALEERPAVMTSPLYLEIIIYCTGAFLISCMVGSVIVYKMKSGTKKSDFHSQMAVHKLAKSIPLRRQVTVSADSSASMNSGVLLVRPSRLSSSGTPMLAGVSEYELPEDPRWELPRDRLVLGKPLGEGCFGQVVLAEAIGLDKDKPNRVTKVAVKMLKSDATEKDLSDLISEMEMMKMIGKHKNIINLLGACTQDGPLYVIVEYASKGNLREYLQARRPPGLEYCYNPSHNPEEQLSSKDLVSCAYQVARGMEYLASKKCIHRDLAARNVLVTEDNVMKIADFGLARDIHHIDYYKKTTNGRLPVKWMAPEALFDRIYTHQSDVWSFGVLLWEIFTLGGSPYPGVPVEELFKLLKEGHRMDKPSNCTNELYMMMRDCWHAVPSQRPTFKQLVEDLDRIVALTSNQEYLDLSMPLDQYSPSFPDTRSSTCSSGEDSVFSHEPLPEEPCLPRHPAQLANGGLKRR
Chain of ZAK (Q9NYL2 whole entry): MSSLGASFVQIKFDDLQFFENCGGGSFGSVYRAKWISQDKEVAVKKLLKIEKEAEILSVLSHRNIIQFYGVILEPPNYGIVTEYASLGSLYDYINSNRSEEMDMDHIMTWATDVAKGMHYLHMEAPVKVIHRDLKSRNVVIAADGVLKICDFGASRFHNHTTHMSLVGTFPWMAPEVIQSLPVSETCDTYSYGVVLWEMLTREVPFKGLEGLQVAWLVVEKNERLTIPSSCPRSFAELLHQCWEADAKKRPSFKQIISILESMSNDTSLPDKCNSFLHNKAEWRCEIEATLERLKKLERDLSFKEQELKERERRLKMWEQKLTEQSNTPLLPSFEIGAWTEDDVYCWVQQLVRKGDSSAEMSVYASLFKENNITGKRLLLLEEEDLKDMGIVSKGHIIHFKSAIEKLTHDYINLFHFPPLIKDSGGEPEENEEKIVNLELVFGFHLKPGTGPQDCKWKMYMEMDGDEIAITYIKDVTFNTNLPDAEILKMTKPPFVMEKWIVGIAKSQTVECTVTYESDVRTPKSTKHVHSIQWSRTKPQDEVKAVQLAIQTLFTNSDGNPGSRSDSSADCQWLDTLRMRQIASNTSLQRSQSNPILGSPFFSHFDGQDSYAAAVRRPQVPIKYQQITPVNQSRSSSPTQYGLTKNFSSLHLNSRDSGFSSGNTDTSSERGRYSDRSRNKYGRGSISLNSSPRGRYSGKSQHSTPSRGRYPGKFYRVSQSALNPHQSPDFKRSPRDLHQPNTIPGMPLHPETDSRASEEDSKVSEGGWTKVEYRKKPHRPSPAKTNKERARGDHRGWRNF
Chain of CSNK1G2 (P78368 whole entry): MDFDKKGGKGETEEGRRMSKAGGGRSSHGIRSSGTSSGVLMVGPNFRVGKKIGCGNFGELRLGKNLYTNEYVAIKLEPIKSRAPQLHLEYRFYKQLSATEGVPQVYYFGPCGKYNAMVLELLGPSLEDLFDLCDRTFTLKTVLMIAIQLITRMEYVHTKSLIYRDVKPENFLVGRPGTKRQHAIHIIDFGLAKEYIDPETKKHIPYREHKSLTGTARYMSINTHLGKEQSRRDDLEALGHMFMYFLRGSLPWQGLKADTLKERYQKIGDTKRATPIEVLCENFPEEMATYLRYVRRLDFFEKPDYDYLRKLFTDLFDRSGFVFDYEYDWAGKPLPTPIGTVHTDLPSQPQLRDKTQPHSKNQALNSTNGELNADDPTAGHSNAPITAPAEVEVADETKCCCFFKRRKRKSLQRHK
Chain of PIK3CA(E545A) (P42336 whole entry E545A): as the sequence (P42336 whole entry Q546K) above, with E545A, K546Q counted along it
Chain of CHEK2 (O96017 whole entry): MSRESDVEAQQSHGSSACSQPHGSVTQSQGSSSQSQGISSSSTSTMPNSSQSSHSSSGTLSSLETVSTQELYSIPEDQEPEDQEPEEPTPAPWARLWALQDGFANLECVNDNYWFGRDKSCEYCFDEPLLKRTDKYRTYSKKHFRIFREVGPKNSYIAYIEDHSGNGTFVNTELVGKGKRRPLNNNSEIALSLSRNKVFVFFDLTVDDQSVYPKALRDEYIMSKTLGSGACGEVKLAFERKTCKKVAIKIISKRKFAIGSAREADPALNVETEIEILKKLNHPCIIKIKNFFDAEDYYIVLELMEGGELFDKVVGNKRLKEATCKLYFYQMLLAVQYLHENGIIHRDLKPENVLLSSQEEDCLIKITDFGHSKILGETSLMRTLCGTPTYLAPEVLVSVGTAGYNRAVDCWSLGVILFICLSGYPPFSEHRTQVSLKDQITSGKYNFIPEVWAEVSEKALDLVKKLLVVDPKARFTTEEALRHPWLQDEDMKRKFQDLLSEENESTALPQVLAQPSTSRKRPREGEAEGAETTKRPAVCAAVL

Compound: CNc1ncc2cc(-c3ccc(-c4cccc(C)n4)cc3Cl)c(=O)n(C[C@H]3OC[C@H](N)CO3)c2n1 [compound 6, G-5555]
- Percent Control [1]: 100%
- Percent Control [2]: 100%
- Percent Control [3]: 91%
- Percent Control [4]: 98%
- Percent Control [5]: 72%
- Percent Control [6]: 100%
- Percent Control [7]: 100%
- Percent Control [8]: 100%
- Percent Control [9]: 100%
- Percent Control [10]: 82%
- Percent Control [11]: 100%
- Percent Control [12]: 100%
- Percent Control [13]: 100%
- Percent Control [14]: 100%
- Percent Control [15]: 99%
- Percent Control [16]: 100%
- Percent Control [17]: 100%
- Percent Control [18]: 100%
- Percent Control [19]: 100%
- Percent Control [20]: 24%
- Percent Control [21]: 100%
- Percent Control [22]: 100%
- Percent Control [23]: 88%
- Percent Control [24]: 85%
- Percent Control [25]: 68%
- Percent Control [26]: 94%
- Percent Control [27]: 89%
- Percent Control [28]: 100%
- Percent Control [29]: 97%
- Percent Control [30]: 97%
- Percent Control [31]: 86%
